Reference: patent US20050075398A1, “Neuroprotectin D1 protects against cellular apoptosis, stroke damage, alzheimer's disease and retinal diseases” (priority 2003, published 2005)
Entries after “also recorded” stand apart in the source; their conditions may differ.

What was measured:
[1] = tested on: ARPE-19 cells; assay: Hoechst staining, TNFα/H2O2 oxidative stress-induced apoptosis; assay type: cell-based, human
Procedure: ARPE-19 cell culture and chemicals: ARPE-19 cells (L. M. Hjelmeland, ATCC # CRL-2302) were grown and maintained in DMEM-F12 medium supplemented with 10% FBS and incubated at 37° C. with a constant supply of 5% CO2. ARPE-19 cells are spontaneously transformed human retinal pigment epithelial cells that conserve cellular biological and functional properties. All chemicals were purchased from Sigma Chemical Co. (St. Louis, Mo.) unless otherwise indicated.
Hoechst staining: ARPE-19 cells were loaded with 2 μM Hoechst dissolved in a Locke's solution (Promega, Madison, Wis.) and incubated one h at 37° C. before imaging. Cells were then washed once with PBS and viewed using a Nikon DIAPHOT 200 microscope under UV fluorescence. Images were recorded by a Hamamatsu Color Chilled 3CCD camera and Photoshop 5.0 software, as described in Mukherjee, P. K., DeCoster, M. A., Campbell, F. Z., Davis, R. J. & Bazan, N. G. (1999) J. Biol. Chem. 274:6493-6498.
Several experimental conditions that result in reproducible oxidative-stress-induced apoptosis in ARPE-19 cells were tested. One condition chosen was the combination of TNFα with H2O2, both in relatively low concentrations. Typically 10 ng/ml of TNFα and 400-800 μM H2O2 led to marked increase in Hoechst-positive cells (Data not shown). Neither TNFα nor H2O2 alone triggered a significant effect under these conditions. (Data not shown).
Serum starvation made ARPE-19 cells more sensitive to oxidative stress-triggered apoptosis induced by TNFα/H2O2. Cells were grown in culture for 72 h in the presence of BSA (3.35 μM) with or without DHA (6.7 μM). Endogenous NPD1 formation was enhanced by BSA-DHA (FIG. 12A).
In the next experiment, confluent cells were starved for 8 h, then TNFα/H2O2 was added and incubated for 14 h before staining with Hoechst reagent. NPD1 (50 nM) was added at the time of adding TNFα/H2O2. […] When the TNFα concentration (10 ng/ml) was maintained and H2O2 concentration was decreased from 800 to 400 μM, fewer Hoechst-positive cells were seen. […] (Data not shown).

[2] = tested on: Bik gene expression; assay: HGU133 GeneChip DNA array in HN cells: Bik; assay type: cell-based, human; conditions: Aβ42 25 μM, DHA 50 nM or NPD1 50 nM, 18 h, nsc = no significant change
Text: RNA Isolation and Spectral Quality. Brain tissues were rapidly processed, and total RNA was extracted using Trizol reagent (Invitrogen, Carlsbad, Calif.). Total RNA quality and abundance were profiled using RNA Nano LabChips (Caliper Technologies, Mountainview, Calif.; Agilent Technologies, Palo Alto, Calif.).
Probe Synthesis and GeneChip Hybridization. Biotinylated antisense cRNAs were synthesized from cDNA using the Superscript Choice System (Invitrogen) and Enzo Biorray High Yield RNA Transcript Labeling kits according to the manufacturer's protocols (Affymetrix) and as described in Colangelo, V., Schurr, J., Ball, M. J., Pelaez, R. P., Bazan, N. G., Lukiw, W. J. (2002) J. Neurosci. Res., 70: 462-473; and Lukiw, W. J. (2004) Neurochem. Research, 29: 1287-1297. Probes were hybridized against HU133Av2 GeneChip DNA arrays that interrogate approximately 33,000 full-length […] genes and expressed sequence tag (EST) clusters. […]
GeneChip Data and Statistical Analysis. […] Volcano plots were plotted representing total gene expression patterns as a function of fold-change as compared to expression patterns of age-matched controls as plotted against p, as calculated by an analysis of variance (ANOVA). […] Statistical significance was analyzed using a two-way factorial analysis of variance (p, ANOVA; Statistical Analysis System; SAS Institute, Cary, N.C. ).

[3] = tested on: caspase-3; assay: Caspase-3 cleavage in ARPE-19 cells stably transfected with lentivirus DEVD construct; conditions: 50 nM
Text: The values shown are the average of triplicate samples in three independent experiments.

[4] = tested on: caspase-3; assay: Caspase-3 cleavage analysis by Western blot (PARP); assay type: cell-based, human; conditions: NPD1 50 nM added with TNFα/H2O2, 6-8 h; TNFα/H2O2 alone 80.8%
Procedure: Caspase-3 cleavage analysis: Caspase-3 cleavage was evaluated by Western-blot analysis after using PARP as substrate. Briefly, 20 μg equivalent of each cell extract was electrophoresed on an 8-16% gel (Promega, Madison, Wis.) for 2 h at 125 volts. The proteins were transferred onto nitrocellulose membranes as before, and probed with PARP antibody (Santa Cruz Biotechnology, Santa Cruz, Calif.). The degradation of PARP was evaluated using ECL kit.
Effector caspase-3, downstream of pro- and anti-apoptotic proteins, is activated as a consequence of mitochondrial cytochrome c release into the cytoplasm and activation of the apoptosome. ARPE-19 cells were serum-starved for 1 h prior to a 6- to 8-h treatment with TNF-α (10 ng)+H2O2 (either 400 or 800 μM as indicated) in the presence or absence of NPD1 (50 nM). In FIG. 15A, caspase-3 cleavage was detected by Western-blot analysis using PARP (Santa Cruz Biotech.) as antibody. […] In ARPE-19 cells, caspase-3-induced cleavage using endogenous substrate occurred when TNFα/H2O2-triggered oxidative stress was present, as indicated by increased PARP accumulation (an 80.8% increase compared to the control; FIG. 15A).

## CC/C=C\C[C@H](O)\C=C/C=C/C=C/[C@H](O)C/C=C\C/C=C\CCC(=O)O [NPD1, 10,17S-docosatriene]
[1]; 50 nM added with TNFα 10 ng/ml plus H2O2 (400-800 μM), 14 h
  inhibition of oxidative stress (TNFα/H2O2)-induced Hoechst-positive cells / apoptosis: inhibition; also recorded: inhibited apoptosis
[1]; 50 nM, TNFα 10 ng/ml plus H2O2 400 μM
  inhibition of oxidative stress caused by the lower H2O2 concentration: almost completely inhibited
[2]
  Bik gene expression, fold change over untreated controls: nsc
[3]; 400 μM H2O2 with TNFα
  inhibition of caspase-3 activation: 60%
[3]; 800 μM H2O2 with TNFα
  inhibition of caspase-3 activation: 50%
[4]
  PARP accumulation (caspase-3 activation), increase compared to the control: 18.3%
